According to ChEMBL document CHEMBL3865791, “Discovery and development of natural product oridonin-inspired anticancer agents” (Eur J Med Chem, 2016):
Where a name gives a salt, the structure may show the parent alone.

What was measured:
[1] = Antiproliferative activity against human MDA-MB-231 cells; format: functional, cell-based
[2] = Antiproliferative activity against human MCF7 cells; format: functional, cell-based
[3] = Antiproliferative activity against human MGC803 cells after 72 hrs by MTT assay; format: functional, cell-based; settings: MGC-803, 72 h
[4] = Antiproliferative activity against human […] cells after 72 hrs by MTT assay; format: functional, cell-based
[5] = Antiproliferative activity against human K562 cells after 72 hrs by MTT assay; format: functional, cell-based; settings: K562, 72 h
[6] = Antiproliferative activity against human CaEs17 cells after 72 hrs by MTT assay; format: functional, cell-based; settings: CaEs17, 72 h
[7] = Antiproliferative activity against human ER-positive MCF7 cells measured after 48 hrs by MTT assay; format: functional, cell-based; settings: MCF7, 48 h
[8] = Antiproliferative activity against human MCF7/ADR cells measured after 48 hrs by MTT assay; format: functional, cell-based; settings: NCI/ADR-RES
[9] = Antiproliferative activity against human MDA-MB-231 cells measured after 48 hrs by MTT assay; format: functional, cell-based; settings: MDA-MB-231, 48 h
[10] = Antiproliferative activity against human ER-triple negative MDA-MB-468 cells measured after 48 hrs by MTT assay; format: functional, cell-based; settings: MDA-MB-468, 48 h
[11] = tested on: MDA-MB-231; test: Potency index, ratio of Oridonin EC50 to compound EC50 for human MDA-MB-231; format: functional
[12] = Cytotoxicity against human K562 cells by MTT assay; format: functional, cell-based
[13] = Antitumor activity against human MGC803 cells xenografted in ICR mouse assessed as tumor growth inhibition at 40 mg/kg/day, ip for 25 consecutive days relative to control; format: functional; settings: MGC-803, ip, read-out: TGI
[14] = Toxicity in iv dosed Sprague-Dawley rat administered qd for 28 days; format: organism-based; settings: in vivo
[15] = Antiproliferative activity against human […] cells after 24 hrs by MTT assay; format: functional, cell-based
[16] = Antitumor activity against H22 cells xenografted in ICR mouse assessed as tumor growth inhibition at 20 mg/kg/day, ip administered for 4 consecutive days relative to control; format: functional; settings: read-out: TGI

| SMILES | EC50 [4] [nM] | EC50 [5] [nM] | EC50 [7] [nM] | EC50 [8] [nM] | EC50 [9] [nM] | EC50 [10] [nM] | also measured |
| --- | --- | --- | --- | --- | --- | --- | --- |
| C=C1C(=O)[C@]23[C@H](O)[C@H]1CC[C@H]2[C@@]12CO[C@@]3(O)[C@@H](O)[C@@H]1C(C)(C)Cc1sc(N)nc12 | – | – | – | – | – | – | EC50 [1]: 3200 nM; EC50 [2]: 1000 nM |
| C=C1C(=O)[C@]23[C@H](O)[C@H]1CC[C@H]2[C@@]12CO[C@@]3(O)[C@@H](O)[C@@H]1C(C)(C)Cc1sc(NC(C)=O)nc12 | – | – | – | – | – | – | EC50 [1]: 6800 nM; EC50 [2]: 2000 nM |
| C=C1C(=O)[C@@]23C(=O)O[C@H]4CCC(C)(C)[C@H]5[C@H](O)OC[C@@]45[C@@H]2CC[C@@H]1[C@H]3OC(=O)c1ccccc1Cl | 850 | 220 | – | – | – | – | EC50 [3]: 800 nM; EC50 [6]: 600 nM |
| C=C1C(=O)[C@@]23C(=O)O[C@H]4CCC(C)(C)[C@H]5C(=O)OC[C@@]45[C@@H]2CC[C@@H]1[C@H]3OC(C)=O | 1370 | 350 | – | – | – | – | EC50 [3]: 1270 nM; EC50 [6]: 690 nM |
| C=C1C(=O)[C@@]23[C@@H]4OC(C)(C)O[C@@]25OC[C@]2(C6=C(CC[C@@H](OCCCl)O6)CC(C)(C)[C@H]2[C@@H]5O)[C@@H]3CC[C@@H]14 | – | – | 6800 | 8700 | 7200 | 7300 | – |
| C=C1C(=O)[C@@]23[C@@H]4OC(C)(C)O[C@@]25OC[C@]2(C6=C(CC[C@H](OCCCC)O6)CC(C)(C)[C@H]2[C@@H]5O)[C@@H]3CC[C@@H]14 | – | – | 2400 | 3800 | 2200 | 3000 | – |
| C=C1C(=O)[C@]23[C@H](O)[C@H]1CC[C@H]2[C@@]12CO[C@@]3(O)[C@@H](O)[C@@H]1C(C)(C)Cc1sc(NCCN3CCCCC3)nc12 | – | – | – | – | – | – | EC50 [1]: 1800 nM; EC50 [2]: 1000 nM |
| C=C1C(=O)[C@@]23[C@@H]4OC(C)(C)O[C@@]25OC[C@]2(C6=C(CC[C@H](OCC)O6)CC(C)(C)[C@H]2[C@@H]5O)[C@@H]3CC[C@@H]14 | – | – | 3500 | 4700 | 6100 | 5400 | – |
| C=C1C(=O)[C@@]23C(=O)O[C@H]4CCC(C)(C)[C@H]5C(=O)OC[C@@]45[C@@H]2CC[C@@H]1[C@H]3OC(=O)c1ccccc1Cl | 720 | 260 | – | – | – | – | EC50 [3]: 820 nM; EC50 [6]: 280 nM |
| C=C1C(=O)[C@@]23C(=O)O[C@H]4CCC(C)(C)[C@H]5C(=O)OC[C@@]45[C@@H]2CC[C@@H]1[C@H]3OC(=O)c1ccccc1 | 790 | 330 | – | – | – | – | EC50 [3]: 460 nM; EC50 [6]: 810 nM |
| C=C1C(=O)[C@]23[C@H](O)[C@H]1CC[C@H]2[C@@]12CO[C@@]3(O)[C@@H](O)[C@@H]1C(C)(C)Cc1sc(NC(=N)N)nc12 | – | – | – | – | – | – | EC50 [1]: > 10000 nM; EC50 [2]: 3400 nM |
| C=C1C(=O)[C@]23[C@H](O)[C@H]1CC[C@H]2[C@@]12CO[C@@]3(O)[C@@H](O)[C@@H]1C(C)(C)Cc1sc(N3CCCCCC3)nc12 | – | – | – | – | – | – | EC50 [1]: 6800 nM; EC50 [2]: 1200 nM |
| C=C1C(=O)[C@]23[C@H](O)[C@H]1CC[C@H]2[C@@]12CO[C@@]3(O)[C@@H](O)[C@@H]1C(C)(C)Cc1sc(N(C)C)nc12 | – | – | – | – | – | – | EC50 [1]: 300 nM; EC50 [2]: 800 nM |
| C=C1C(=O)[C@@]23[C@@H]4OC(C)(C)O[C@@]25OC[C@]2([C@@H](n6cc(-c7ccccc7)nn6)C=CC(C)(C)[C@H]2[C@@H]5O)[C@@H]3CC[C@@H]14 | – | – | – | – | 480 | – | Ratio EC50 [11]: 61 |
| C=C1C(=O)[C@@]23C(=O)O[C@H]4CCC(C)(C)[C@H]5[C@H](O)OC[C@@]45[C@@H]2CC[C@@H]1[C@H]3OC(C)=O | 1970 | 1110 | – | – | – | – | EC50 [3]: 1990 nM; EC50 [6]: 1590 nM |
| CC(=O)[C@@H]1CC[C@H]2[C@@]34CO[C@@]5(O)[C@@H](OC(=O)[C@]25[C@@H]1O)[C@@H]3C(C)(C)CC[C@@H]4O | – | – | – | – | – | – | EC50 [12]: 18500 nM |
| C=C1C(=O)[C@]23[C@H](O)[C@H]1CC[C@H]2[C@@]12CO[C@@]3(O)[C@@H](O)[C@@H]1C(C)(C)Cc1sc(NC3CCCCC3)nc12 | – | – | – | – | – | – | EC50 [1]: 800 nM; EC50 [2]: 900 nM |
| C=C1C(=O)[C@]23[C@H](O)[C@H]1CC[C@H]2[C@@]12CO[C@@]3(O)[C@@H](O)[C@@H]1C(C)(C)Cc1sc(NC)nc12 | – | – | – | – | – | – | EC50 [1]: 2100 nM; EC50 [2]: 1300 nM |

| SMILES | EC50 [4] [nM] | EC50 [5] [nM] | EC50 [7] [nM] | EC50 [8] [nM] | EC50 [9] [nM] | EC50 [10] [nM] | also measured |
| --- | --- | --- | --- | --- | --- | --- | --- |
| C=C1C(=O)[C@@]23C(=O)O[C@H]4CCC(C)(C)[C@H]5[C@H](O)OC[C@@]45[C@@H]2CC[C@@H]1[C@H]3OC(=O)c1ccccc1 | 1420 | 210 | – | – | – | – | EC50 [3]: 930 nM; EC50 [6]: 540 nM |
| C=C1C(=O)[C@@]23C(=O)O[C@H]4CCC(C)(C)[C@H]5C(=O)OC[C@@]45[C@@H]2CC[C@@H]1[C@H]3OC(=O)c1ccc(C)cc1 | 1580 | 520 | – | – | – | – | EC50 [3]: 1540 nM; EC50 [6]: 1780 nM |
| C=CCO[C@@H]1CCC2=C(O1)[C@@]13CO[C@@]4(OC(C)(C)O[C@@H]5[C@H]6CC[C@@H]1[C@]54C(=O)C6=C)[C@@H](O)[C@@H]3C(C)(C)C2 | – | – | 2100 | 3200 | 3300 | 4400 | – |
| C=CCO[C@H]1CCC2=C(O1)[C@@]13CO[C@@]4(OC(C)(C)O[C@@H]5[C@H]6CC[C@@H]1[C@]54C(=O)C6=C)[C@@H](O)[C@@H]3C(C)(C)C2 | – | – | 4300 | 4300 | 7100 | 4900 | – |
| C=C1C(=O)[C@@]23[C@@H]4OC(C)(C)O[C@@]25OC[C@]2(C6=C(CC[C@@H](OCC(C)C)O6)CC(C)(C)[C@H]2[C@@H]5O)[C@@H]3CC[C@@H]14 | – | – | 5800 | 10300 | 8200 | 7000 | – |
| C=C1C(=O)[C@]23[C@H](OC(=O)c4ccccc4C(=O)OCCCOc4no[n+]([O-])c4S(=O)(=O)c4ccccc4)[C@H]1CC[C@H]2[C@@]12CO[C@@]3(O)[C@@H](O)[C@@H]1C(C)(C)CC[C@@H]2O | 860 | 1820 | – | – | – | – | – |
| C=C1C(=O)[C@@]23C(=O)O[C@H]4CCC(C)(C)[C@H]5C(=O)OC[C@@]45[C@@H]2CC[C@@H]1[C@H]3OC(=O)c1ccc(Cl)cc1 | 890 | 140 | – | – | – | – | EC50 [3]: 340 nM; EC50 [6]: 340 nM |
| C=C1C(=O)[C@@]23C(=O)O[C@H]4CCC(C)(C)[C@H]5C(=O)OC[C@@]45[C@@H]2CC[C@@H]1[C@H]3OC(=O)c1cccnc1 | 710 | 1740 | – | – | – | – | inhibition in vivo at 40 mg/kg/day [13]: 64.8%; EC50 [3]: 1160 nM; EC50 [6]: 3540 nM |
| C=C1C(=O)[C@@]23[C@@H]4OC(C)(C)O[C@@]25OC[C@]2(C6=C(CC[C@@H](OCCCC)O6)CC(C)(C)[C@H]2[C@@H]5O)[C@@H]3CC[C@@H]14 | – | – | 2400 | 6800 | 3700 | 5800 | – |
| C=CCNc1nc2c(s1)CC(C)(C)[C@H]1[C@H](O)[C@]3(O)OC[C@@]21[C@@H]1CC[C@H]2C(=C)C(=O)[C@]13[C@@H]2O | – | – | – | – | – | – | EC50 [1]: 200 nM; EC50 [2]: 200 nM; Ratio EC50 [11]: 147 |
| C=C1C(=O)[C@]23[C@H](OC(=O)[C@H](C)N)[C@H]1CC[C@H]2[C@@]12CO[C@@]3(O)[C@@H](O)[C@@H]1C(C)(C)CC[C@@H]2O.O=C(O)C(F)(F)F | – | – | – | – | – | – | NOAEL at 672 h [14]: 40 mg/kg |
| C=C1C(=O)[C@@]23[C@@H]4OC(C)(C)O[C@@]25OC[C@]2(C6=C(CC[C@H](OCCCl)O6)CC(C)(C)[C@H]2[C@@H]5O)[C@@H]3CC[C@@H]14 | – | – | 2300 | 3100 | 3300 | 3000 | – |
| COc1cccc2c1C(=O)c1c(O)c3c(c(O)c1C2=O)C[C@@](O)(C(=O)CO)C[C@@H]3O[C@H]1C[C@H](N)[C@H](O)[C@H](C)O1 [DOXORUBICIN HYDROCHLORIDE] | – | – | 700 | > 10000 | 2300 | 700 | – |
| C=C1C(=O)[C@@]23[C@@H]4OC(C)(C)O[C@@]25OC[C@]2(C6=C(CC[C@H](OCC(C)C)O6)CC(C)(C)[C@H]2[C@@H]5O)[C@@H]3CC[C@@H]14 | – | – | 2200 | 4400 | 1800 | 2600 | – |
| C=C1C(=O)[C@@]23[C@@H]4OC(C)(C)O[C@@]25OC[C@]2(C6=C(CC[C@@H](OCC)O6)CC(C)(C)[C@H]2[C@@H]5O)[C@@H]3CC[C@@H]14 | – | – | 440 | 1600 | 540 | 520 | – |
| C=C1C(=O)[C@]23[C@H](OC(=O)CC(CCCCCCCCCCCC)C(=O)O)[C@H]1CC[C@H]2[C@@]12CO[C@@]3(O)[C@@H](O)[C@@H]1C(C)(C)CC[C@@H]2O (some centres undefined) | – | – | – | – | – | – | EC50 [15]: 2060 nM; inhibition in vivo at 20 mg/kg/day [16]: 63.7% |
| C=C1C(=O)[C@]23[C@H](O)[C@H]1CC[C@H]2[C@@]12CO[C@@]3(O)[C@@H](O)[C@@H]1C(C)(C)Cc1sc(NCCCC)nc12 | – | – | – | – | – | – | EC50 [1]: 1100 nM; EC50 [2]: 600 nM |
| C=C1C(=O)[C@@]23C(=O)O[C@H]4CCC(C)(C)[C@H]5[C@H](O)OC[C@@]45[C@@H]2CC[C@@H]1[C@H]3OC(=O)c1ccc(C)cc1 | 1010 | 140 | – | – | – | – | EC50 [3]: 610 nM; EC50 [6]: 450 nM |
